From patent US20230114241A1, “METHODS OF TREATING EPILEPSY USING THE SAME” (Trevena, Inc., priority 2019, published 2023)

What follows are compounds tested against human sphingosine-1-phosphate receptor 1 (S1P1) (Homo sapiens, UniProt P21453) (assay: Inhibition of cAMP production (HTRF cAMP HiRange), S1P1 CHO-K1 cells). Conditions: inhibition of cAMP production, S1P1; read-out: hS1P1 CAMP pEC50 (converted).
Format: cell-based
Method: Stable clonal Chinese hamster ovary K1 (CHO-K1) cells co-expressing EA-β-arrestin2 and the human sphingosine-1-phosphate receptor 1 (NM_001400, S1P1) with a C-terminal Prolink™ tag were purchased from DiscoverX corporation (Cat #: 93-0207C2).
Cell lines were cultured in AssayComplete™ Media 6 (DiscoverX Corporation, Cat #: 920018GF2) at 37° C. and 5% CO2 in a humidified CO2 and temperature-controlled incubator. To begin assay plating, cells were washed with Dulbecco's phosphate buffered saline (CellGro, Cat #: 21-031-CV) and lifted from the culturing flask by incubation (37° C., 5 min) with CellStripper (Cellgro, Cat #: 25-056-CI). […] Plated cells were incubated overnight at 37° C. and 5% CO2 in a humidified CO2 and temperature-controlled incubator.
Agonist-promoted G-protein responses were determined by measuring changes in intracellular cAMP using the HTRF® cAMP HiRange kit (CisBio, Cat #: 62AM6PEJ) based on time-resolved fluorescence resonance energy transfer (TR-FRET) technology. […] Following a 30-minute incubation at 37° C. and 5% CO2 in a humidified CO2 and temperature-controlled incubator, the components of the cAMP HiRange kit were added as per the manufacturer's instructions. After an hour incubation at room temperature, plates were analyzed by a BMG PheraStar microplate reader.
These values are normalized to fingolimod, a known agonist of the sphingosine-1-phosphate 1 receptor.

human sphingosine-1-phosphate receptor 1 (S1P1), sequence (P21453 whole entry): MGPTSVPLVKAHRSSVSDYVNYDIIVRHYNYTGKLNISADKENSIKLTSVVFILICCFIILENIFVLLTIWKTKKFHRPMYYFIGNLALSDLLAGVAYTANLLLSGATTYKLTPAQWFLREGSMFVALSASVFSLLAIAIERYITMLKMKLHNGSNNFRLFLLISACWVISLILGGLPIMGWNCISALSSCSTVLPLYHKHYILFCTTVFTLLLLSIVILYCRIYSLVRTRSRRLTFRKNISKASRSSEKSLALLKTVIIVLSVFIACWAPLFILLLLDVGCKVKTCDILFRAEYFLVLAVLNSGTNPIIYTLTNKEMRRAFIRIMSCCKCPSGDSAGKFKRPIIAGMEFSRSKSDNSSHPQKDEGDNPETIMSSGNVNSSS

`CC(C)n1nnc2cc(-c3c[nH]c(-c4ccccc4)c3)ccc21` [Compound 543, 5-(5-phenyl-1H-pyrrol-3-yl)-1-(propan-2-yl)-1H-1,2,3-benzotriazole] and `CC(C)Oc1ccc(-c2ccc(-c3ccc4c(c3)nnn4C(C)C)cc2)cc1C#N` [Compound 506, 4-isopropoxy-4′-(1-isopropyl-1H-benzo[d][1,2,3]triazol-5-yl)-[1,1′-biphenyl]-3-carbonitrile] cannot be ordered by EC50: less than 316 nM for the first, less than 316 nM for the second.

Compared with `CC(C)n1nnc2cc(-c3nc(-c4ccc5nc[nH]c5c4)no3)ccc21` [Compound 511, 5-[3-(1H-1,3-benzodiazol-6-yl)-1,2,4-oxadiazol-5-yl]-1-(propan-2-yl)-1H-1,2,3-benzotriazole], `CC(C)n1nnc2cc(-c3nc4ccncc4o3)ccc21` [Compound 503, 2-(1-isopropyl-1H-benzo[d][1,2,3]triazol-5-yl)oxazolo[5,4-c]pyridine] is higher in EC50: less than 316 nM for the first, greater than 316 nM for the second.

First: Cc1ccc2oc(-c3ccc4c(c3)nnn4CC(C)C)nc2c1 [Compound 437, 2-(1-isobutyl-1H-benzo[d][1,2,3]triazol-5-yl)-5-methyl-benzo[d]oxazole]
Second: COc1ccc2nc(-c3ccc4c(c3)nnn4CC(C)C)oc2c1 [Compound 452, 2-(1-isobutyl-1H-benzo[d][1,2,3]triazol-5-yl)-6-methoxy-benzo[d]oxazole]
The EC50 of the first is lower: less than 316 nM for the first, greater than 316 nM for the second.

Going from `N#Cc1cc(-c2nc(-c3ccc4sc(N)nc4c3)no2)ccc1NCC1CC1` [Compound 440, 5-(3-(2-aminobenzo[d]thiazol-5-yl)-1,2,4-oxadiazol-5-yl)-2-((cyclopropylmethyl)amino)benzonitrile] to `CC(C)n1nnc2cc(-c3nc4c(Cl)cccc4o3)ccc21` [Compound 427, 4-chloro-2-(1-isopropyl-1H-benzo[d][1,2,3]triazol-5-yl)benzo[d]oxazole], the EC50 rises from less than 316 nM to greater than 316 nM.

With `CC(C)n1nnc2cc(-c3nc4c(o3)COc3ccccc3-4)ccc21` [Compound 462, 5-{4H-chromeno[4,3-d][1,3]oxazol-2-yl}-1-(propan-2-yl)-1H-1,2,3-benzotriazole] the EC50 was less than 316 nM.

Same assay, conditions: inhibition of cAMP production; potency; read-out: hS1P1 CAMP pEC50 (converted)

First: COc1cccc(F)c1-c1noc(-c2ccc3c(cnn3C(C)C)c2)n1 [Compound 338, 3-(2-fluoro-6-methoxy-phenyl)-5-(1-isopropyl-indazol-5-yl)-1,2,4-oxadiazole]
Second: CC(C)n1nnc2cc(-c3noc(-c4ccccc4F)n3)ccc21 [Compound 307, 5-(2-fluorophenyl)-3-(1-isopropyl-1H-benzo[d][1,2,3]triazol-5-yl)-1,2,4-oxadiazole]
The EC50 of the first is higher: greater than 316 nM for the first, less than 316 nM for the second.

`CCC1(CC)CC(=O)c2cc(-c3nc(-c4ccc(OC)nc4)no3)ccc2O1` [Compound 301, 2,2-diethyl-6-[3-(6-methoxy-3-pyridyl)-1,2,4-oxadiazol-5-yl]chroman-4-one] and `CCC1(CC)CC(=O)c2cc(-c3nc(-c4ccc(C)cc4)no3)ccc2O1` [Compound 269, 2,2-diethyl-6-[3-(p-tolyl)-1,2,4-oxadiazol-5-yl]chroman-4-one] cannot be ordered by EC50: greater than 316 nM for the first, greater than 316 nM for the second.

`COc1ccc(-c2noc(-c3ccc4c(c3)nnn4C(C)C)n2)c2ccccc12` [Compound 129, 5-[3-(4-methoxy-naphthalen-1-yl)-1,2,4-oxadiazol-5-yl]-1-(propan-2-yl)-1H-1,2,3-benzotriazole] and `CC(C)n1nnc2cc(-c3nc(-c4ccc(OCc5ccccc5)c(C(F)(F)F)c4)no3)ccc21` [Compound 296, 5-{3-[4-(benzyloxy)-3-(trifluoromethyl)phenyl]-1,2,4-oxadiazol-5-yl}-1-(propan-2-yl)-1H-1,2,3-benzotriazole] cannot be ordered by EC50: greater than 316 nM for the first, greater than 316 nM for the second.

First: Cc1ccsc1-c1noc(-c2ccc3c(c2)nnn3CC2CC2)n1 [Compound 239, 1-(cyclopropyl-methyl)-5-[3-(3-methylthiophen-2-yl)-1,2,4-oxadiazol-5-yl]-1H-1,2,3-benzotriazole]
Second: Cc1ccsc1-c1noc(-c2ccc3c(c2)nnn3CC(C)C)n1 [Compound 75, 1-(2-methylpropyl)-5-[3-(3-methylthiophen-2-yl)-1,2,4-oxadiazol-5-yl]-1H-1,2,3-benzotriazole]
The EC50 of the first is higher: greater than 316 nM for the first, less than 316 nM for the second.

First: COc1cccc(-c2cnc(-c3ccc4c(c3)nnn4C(C)C)s2)c1 [Compound 108, 2-(1-isopropyl-1H-benzo[d][1,2,3]triazol-5-yl)-5-(3-methoxy-phenyl)thiazole]
Second: Cc1oc(-c2ccc3c(c2)nnn3C(C)C)nc1-c1ccc(Cl)cc1 [Compound 50, 5-[4-(4-chlorophenyl)-5-methyl-1,3-oxazol-2-yl]-1-(propan-2-yl)-1H-1,2,3-benzotriazole]
The EC50 of the first is lower: less than 316 nM for the first, greater than 316 nM for the second.

First: CCC1(CC)CC(=O)c2cc(-c3nnc(-c4ccccc4OC)s3)ccc2O1 [Compound 178, 2,2-diethyl-6-(5-(2-methoxyphenyl)-1,3,4-thiadiazol-2-yl)chroman-4-one]
Second: CCC1(CC)CC(=O)c2cc(-c3nc(-c4sccc4C)no3)ccc2O1 [Compound 265, 2,2-diethyl-6-(3-(3-methylthiophen-2-yl)-1,2,4-oxadiazol-5-yl)chroman-4-one]
The EC50 of the first is higher: greater than 316 nM for the first, less than 316 nM for the second.

`Cc1cc(C)cc(Cc2noc(-c3ccc4c(c3)nnn4C(C)C)n2)c1` [Compound 126, 5-{3-[(3,5-dimethyl-phenyl)methyl]-1,2,4-oxadiazol-5-yl}-1-(propan-2-yl)-1H-1,2,3-benzotriazole] and `COc1cc(C)c(-c2noc(-c3ccc4c(c3)nnn4C(C)C)n2)c(OC)c1` [Compound 136, 5-[3-(2,4-dimethoxy-6-methylphenyl)-1,2,4-oxadiazol-5-yl]-1-(propan-2-yl)-1H-1,2,3-benzotriazole] cannot be ordered by EC50: greater than 316 nM for the first, greater than 316 nM for the second.

First: Clc1ncccc1-c1noc(-c2ccc3c(c2)nnn3C2CCCC2)n1 [Compound 198, 5-[3-(2-chloro-pyridin-3-yl)-1,2,4-oxadiazol-5-yl]-1-cyclopenty1-1H-1,2,3-benzotriazole]
Second: COc1cccc(-c2nc(-c3ccc4c(c3)nnn4C3CCCC3)no2)c1 [Compound 130, 3-(1-cyclopentyl-1H-benzo[d][1,2,3]triazol-5-yl)-5-(3-methoxy-phenyl)-1,2,4-oxadiazole]
The EC50 of the first is lower: less than 316 nM for the first, greater than 316 nM for the second.

`O=C1CC2(CCC(F)(F)CC2)Oc2ccc(-c3nc(-c4cccnc4)no3)cc21` [Compound 36, 4′,4′-difluoro-6-[3-(pyridin-3-yl)-1,2,4-oxadiazol-5-yl]-3,4-dihydrospiro[1-benzo-pyran-2,1′-cyclohexane]-4-one] and `Brc1ccccc1-c1nc(-c2ccc3[nH]nnc3c2)no1` [Compound 97, 3-(1H-benzo[d][1,2,3]triazol-5-yl)-5-(2-bromophenyl)-1,2,4-oxadiazole] cannot be ordered by EC50: greater than 316 nM for the first, greater than 316 nM for the second.

`CC(C)n1nnc2cc(-c3noc(C4CCCCC4)n3)ccc21` [Compound 127, 5-(5-cyclohexyl-1,2,4-oxadiazol-3-yl)-1-(propan-2-yl)-1H-1,2,3-benzotriazole] and `CC(C)n1nnc2cc(-c3noc(C4CCC(F)(F)CC4)n3)ccc21` [Compound 125, 5-[5-(4,4-difluoro-cyclohexyl)-1,2,4-oxadiazol-3-yl]-1-(propan-2-yl)-1H-1,2,3-benzotriazole] cannot be ordered by EC50: greater than 316 nM for the first, greater than 316 nM for the second.

`CCC1(CC)CC(=O)c2cc(-c3nnc(-c4ccc5c(c4)nnn5C(C)C)o3)ccc2O1` [Compound 223, 2,2-diethyl-6-(5-(1-isopropyl-1H-benzo[d][1,2,3]triazol-5-yl)-1,3,4-oxadiazol-2-yl)chroman-4-one] and `CC(C)n1nnc2cc(C(=O)Nc3noc4ccccc34)ccc21` [Compound 181, N-(benzo[d]isoxazol-3-yl)-1-isopropyl-1H-benzo[d][1,2,3]triazole-5-carboxamide] cannot be ordered by EC50: greater than 316 nM for the first, greater than 316 nM for the second.

`CC(F)(F)CNc1ccc(-c2nc(-c3ccc4c(c3)CCC(=O)N4)no2)cc1C#N` [Compound 347, 2-[(2,2-difluoropropyl)amino]-5-[3-(2-oxo-1,2,3,4-tetrahydro-quinolin-6-yl)-1,2,4-oxadiazol-5-yl]benzonitrile] and `N#Cc1cc(-c2nnc(-c3ccc4[nH]ncc4c3)o2)ccc1NCC(F)F` [Compound 354, 2-[(2,2-difluoro-ethyl)amino]-5-[5-(1H-indazol-5-yl)-l,3,4-oxadiazol-2-yl]benzonitrile] cannot be ordered by EC50: less than 316 nM for the first, less than 316 nM for the second.

`Brc1ccccc1-c1noc(-c2ccc3[nH]nnc3c2)n1` [Compound 190, 5-[3-(2-bromophenyl)-1,2,4-oxadiazol-5-yl]-1H-1,2,3-benzotriazole] and `FC(F)(F)Oc1ccccc1-c1nc(-c2ccc3c(c2)nnn3C2CCCC2)no1` [Compound 84, 3-(1-cyclopentyl-1H-benzo[d][1,2,3]triazol-5-yl)-5-(2-(trifluoro-methoxy)phenyl)-1,2,4-oxadiazole] cannot be ordered by EC50: greater than 316 nM for the first, greater than 316 nM for the second.

`COC(=O)NS(=O)(=O)n1c(=O)oc2cc(-c3nnc(-c4ccccc4OC)o3)ccc21` [Compound 342, methyl N-({6-[5-(2-methoxyphenyl)-1,3,4-oxadiazol-2-yl]-2-oxo-2,3-dihydro-1,3-benzoxazol-3-yl}sulfonyl)carbamate] and `Cc1ccc(-c2noc(-c3ccc4c(c3)nnn4C3CCCCC3)n2)cc1` [Compound 117, 1-cyclohexyl-5-[3-(4-methylphenyl)-1,2,4-oxadiazol-5-yl]-1H-1,2,3-benzotriazole] cannot be ordered by EC50: greater than 316 nM for the first, greater than 316 nM for the second.
